Like-named read-outs stand apart in the source and are kept apart here.
Experiments:
[1] = target: T1, RSV ribonucleoprotein (RNP) complexes (Human respiratory syncytial virus A, UniProt P28887); experiment: RSV RNP transcription assay; type: biochemical, RSV A2; details: reduction of total radiolabled transcripts by 50%, 90 minute incubation at 30° C.
T1 construct: The supernatant (S3) fraction, containing the enriched RSV RNP complexes, was collected; endogenous in cells; host or cells: HEp-2 cells infected with RSV A2; crude detergent-extracted S3 fraction
Description: HEp-2 cells were plated at a density of 7.1×10^4 cells/cm^2 in MEM+10% fetal bovine serum (FBS) and allowed to attach overnight at 37° C. (5% CO2). Following attachment, the cells were infected with RSV A2 (MOI=5) in 35 mL MEM+2% FBS. At 20 hours post-infection, the media was replaced with MEM+2% FBS supplemented with 2 μg/mL actinomycin D and returned to 37° C. for one hour. The cells were then washed once with PBS and treated with 35 mL of PBS+250 μg/mL lyso-lecithin for one minute, after which all liquid was aspirated. The cells were harvested by scrapping them into 1.2 mL of buffer A [50 mM TRIS acetate (pH 8.0), 100 mM potassium acetate, 1 mM DTT and 2 μg/mL actinomycin D] and lysed by repeated passage through an 18 gauge needle (10 times). The cell lysate was placed in ice for 10 minutes and then centrifuged at 2400 g for 10 minutes at 4° C. The supernatant (S1) was removed and the pellet (P1) was disrupted in 600 uL of Buffer B [10 mM TRIS acetate (pH 8.0), 10 mM potassium acetate and 1.5 mM MgCl2] supplemented with 1% Triton X-100 by repeated passage through an 18 gauge needle (10 times). The resuspended pellet was placed in ice for 10 minutes and then centrifuged at 2400 g for 10 minutes at 4° C. The supernatant (S2) was removed and the pellet (P2) was disrupted in 600 uL of Buffer B supplemented with 0.5% deoxycholate and 0.1% Tween 40. The resuspended pellet was placed in ice for 10 minutes and then centrifuged at 2400 g for 10 minutes at 4° C. The supernatant (S3) fraction, containing the enriched RSV RNP complexes, was collected and the protein concentration determined by UV absorbance at 280 nm. Aliquoted RSV RNP S3 fractions were stored at −80° C.
Transcription reactions contained 25 μg of crude RSV RNP complexes in 30 μL of reaction buffer [50 mM TRIS-acetate (pH 8.0), 120 mM potassium acetate, 5% glycerol, 4.5 mM MgCl2, 3 mM DTT, 2 mM ethyleneglycol-bis(2-aminoethylether)-tetraacetic acid (EGTA), 50 μg/mL BSA, 2.5 U RNasin (Promega), ATP, GTP, UTP, CTP and 1.5 uCi [α-^32P] NTP (3000 Ci/mmol)]. The radiolabled nucleotide used in the transcription assay was selected to match the nucleotide analog being evaluated for inhibition of RSV RNP transcription. […] The three remaining nucleotides were added at a final concentration of 100 μM.
To determine whether nucleotide analogs inhibited RSV RNP transcription, compounds were added using a 6 step serial dilution in 5-fold increments. Following a 90 minute incubation at 30° C., the RNP reactions were stopped with 350 μL of Qiagen RLT lysis buffer and the RNA was purified using a Qiagen RNeasy 96 kit. Purified RNA was denatured in RNA sample loading buffer (Sigma) at 65° C. for 10 minutes and run on a 1.2% agarose/MOPS gel containing 2M formaldehyde. […]

[2] = system: RSV strain A2; experiment: Anti-RSV cytoprotection assay in Hep2 cells; type: cell-based; details: human respiratory syncytial virus, HEp-2, 96 h
Description: Antiviral activity against RSV is determined using an in vitro cytoprotection assay in Hep2 cells. […] The method used is similar to methods previously described in published literature (Chapman et al., Antimicrob Agents Chemother. 2007, 51(9):3346-53.)
Hep2 cells are obtained from ATCC (Manassas, VI) and maintained in MEM media supplemented with 10% fetal bovine serum and penicillin/streptomycin. Cells are passaged twice a week and kept at subconfluent stage. Commercial stock of RSV strain A2 (Advanced Biotechnologies, Columbia, MD) is titered before compound testing to determine the appropriate dilution of the virus stock that generates desirable cytopathic effect in Hep2 cells.
For antiviral tests, Hep2 cells are seeded into 96-well plates 24 hours before the assay at a density of 3,000 cells/well. On a separate 96 well plate, compounds to be tested are serially diluted in cell culture media. Eight concentrations in 3-fold serial dilution increments are prepared for each tested compound and 100 uL/well of each dilution is transferred in duplicate onto plates with seeded Hep2 cells. Subsequently, appropriate dilution of virus stock previously determined by titration is prepared in cell culture media and 100 uL/well is added to test plates containing cells and serially diluted compounds. Each plate includes three wells of infected untreated cells and three wells of uninfected cells that served as 0% and 100% virus inhibition control, respectively. Following the infection with RSV, testing plates are incubated for 4 days in a tissue culture incubator. After the incubation, RSV-induced cytopathic effect is determined using a Cell TiterGlo reagent (Promega, Madison, WI) followed by a luminescence read-out. The percentage inhibition is calculated for each tested concentration relative to the 0% and 100% inhibition controls and the EC50 value for each compound is determined by non-linear regression as a concentration inhibiting the RSV-induced cytopathic effect by 50%. Ribavirin (purchased from Sigma, St. Louis, MO) is used as a positive control for antiviral activity.

[3] = Cytotoxicity in uninfected Hep2 cells; type: cell-based; details: human, CellTiter Glo
Description: Cytotoxicity of tested compounds is determined in uninfected Hep2 cells in parallel with the antiviral activity using the cell viability reagent in a similar fashion as described before for other cell types (Cihlar et al., Antimicrob Agents Chemother. 2008, 52(2):655-65.). The same protocol as for the determination of antiviral activity is used for the measurement of compound cytotoxicity except that the cells are not infected with RSV. Instead, fresh cell culture media (100 uL/well) without the virus is added to tested plates with cells and prediluted compounds. Cells are then incubated for 4 days followed by a cell viability test using CellTiter Glo reagent and a luminescence read-out. Untreated cell and cells treated with 50 ug/mL puromycin (Sigma, St. Louis, MO) are used as 100% and 0% cell viability control, respectively. The percent of cell viability is calculated for each tested compound concentration relative to the 0% and 100% controls and the CC50 value is determined by non-linear regression as a compound concentration reducing the cell viability by 50%.

[4] = system: Parainfluenza 3 strain C 243; experiment: Parainfluenza cytoprotection assay in Vero cells; type: cell-based; details: 168 h, Parainfluenza 3 strain C 243, 7 days, MTS
Description: (§1) The Parainfluenza Cytoprotection assay uses Vero cells and Parainfluenza 3 strain C 243. Briefly virus and cells are mixed in the presence of test compound and incubated for 7 days. […] Therefore, antiviral effect or cytoprotection is observed when compounds prevent virus replication. Each assay plate contains cell control wells (cells only), virus control wells (cells plus virus), compound toxicity control wells (cells plus compound only), compound colorimetric control wells (compound only), as well as experimental wells (compound plus cells plus virus). Cytoprotection and compound cytotoxicity are assessed by MTS (CellTiter®96 Reagent, Promega, Madison WI) dye reduction. […]
The virus used for this assay is Parainfluenza 3 strain C 243. […] The virus is resuspended and diluted into tissue culture medium such that the amount of virus added to each well is the amount determined to give between 85 to 95% cell killing at 6-7 days post-infection.
(§2) At assay termination (7 days post-infection), the assay plates are stained with the soluble tetrazolium-based dye MTS (3-(4,5-dimethylthiazol-2-yl)-5-(3-carboxymethoxyphenyl)-2-(4-sulfophenyl)-2H-tetrazolium; CellTiter®96 Reagent, Promega) to determine cell viability and quantify compound toxicity. […]

[5] = Compound cytotoxicity in Vero cells (MTS); type: cell-based; details: African green monkey (Cercopithecus aethiops), concentration resulting in 50% cell death, read-out: TC50
Description: as §1
as §2, with “toxicity. MTS is metabolized by the mitochondrial enzymes of metabolically active cells to yield a soluble formazan product, allowing the rapid quantitative analysis of cell viability and compound cytotoxicity.” for “toxicity.”

[6] = RSV-induced cytopathic effect, Hep2 cells, RSV strain A2, 4 days, Cell TiterGlo, read-out: EC50

T1 sequence (P28887 whole entry, looked up, one chain of several): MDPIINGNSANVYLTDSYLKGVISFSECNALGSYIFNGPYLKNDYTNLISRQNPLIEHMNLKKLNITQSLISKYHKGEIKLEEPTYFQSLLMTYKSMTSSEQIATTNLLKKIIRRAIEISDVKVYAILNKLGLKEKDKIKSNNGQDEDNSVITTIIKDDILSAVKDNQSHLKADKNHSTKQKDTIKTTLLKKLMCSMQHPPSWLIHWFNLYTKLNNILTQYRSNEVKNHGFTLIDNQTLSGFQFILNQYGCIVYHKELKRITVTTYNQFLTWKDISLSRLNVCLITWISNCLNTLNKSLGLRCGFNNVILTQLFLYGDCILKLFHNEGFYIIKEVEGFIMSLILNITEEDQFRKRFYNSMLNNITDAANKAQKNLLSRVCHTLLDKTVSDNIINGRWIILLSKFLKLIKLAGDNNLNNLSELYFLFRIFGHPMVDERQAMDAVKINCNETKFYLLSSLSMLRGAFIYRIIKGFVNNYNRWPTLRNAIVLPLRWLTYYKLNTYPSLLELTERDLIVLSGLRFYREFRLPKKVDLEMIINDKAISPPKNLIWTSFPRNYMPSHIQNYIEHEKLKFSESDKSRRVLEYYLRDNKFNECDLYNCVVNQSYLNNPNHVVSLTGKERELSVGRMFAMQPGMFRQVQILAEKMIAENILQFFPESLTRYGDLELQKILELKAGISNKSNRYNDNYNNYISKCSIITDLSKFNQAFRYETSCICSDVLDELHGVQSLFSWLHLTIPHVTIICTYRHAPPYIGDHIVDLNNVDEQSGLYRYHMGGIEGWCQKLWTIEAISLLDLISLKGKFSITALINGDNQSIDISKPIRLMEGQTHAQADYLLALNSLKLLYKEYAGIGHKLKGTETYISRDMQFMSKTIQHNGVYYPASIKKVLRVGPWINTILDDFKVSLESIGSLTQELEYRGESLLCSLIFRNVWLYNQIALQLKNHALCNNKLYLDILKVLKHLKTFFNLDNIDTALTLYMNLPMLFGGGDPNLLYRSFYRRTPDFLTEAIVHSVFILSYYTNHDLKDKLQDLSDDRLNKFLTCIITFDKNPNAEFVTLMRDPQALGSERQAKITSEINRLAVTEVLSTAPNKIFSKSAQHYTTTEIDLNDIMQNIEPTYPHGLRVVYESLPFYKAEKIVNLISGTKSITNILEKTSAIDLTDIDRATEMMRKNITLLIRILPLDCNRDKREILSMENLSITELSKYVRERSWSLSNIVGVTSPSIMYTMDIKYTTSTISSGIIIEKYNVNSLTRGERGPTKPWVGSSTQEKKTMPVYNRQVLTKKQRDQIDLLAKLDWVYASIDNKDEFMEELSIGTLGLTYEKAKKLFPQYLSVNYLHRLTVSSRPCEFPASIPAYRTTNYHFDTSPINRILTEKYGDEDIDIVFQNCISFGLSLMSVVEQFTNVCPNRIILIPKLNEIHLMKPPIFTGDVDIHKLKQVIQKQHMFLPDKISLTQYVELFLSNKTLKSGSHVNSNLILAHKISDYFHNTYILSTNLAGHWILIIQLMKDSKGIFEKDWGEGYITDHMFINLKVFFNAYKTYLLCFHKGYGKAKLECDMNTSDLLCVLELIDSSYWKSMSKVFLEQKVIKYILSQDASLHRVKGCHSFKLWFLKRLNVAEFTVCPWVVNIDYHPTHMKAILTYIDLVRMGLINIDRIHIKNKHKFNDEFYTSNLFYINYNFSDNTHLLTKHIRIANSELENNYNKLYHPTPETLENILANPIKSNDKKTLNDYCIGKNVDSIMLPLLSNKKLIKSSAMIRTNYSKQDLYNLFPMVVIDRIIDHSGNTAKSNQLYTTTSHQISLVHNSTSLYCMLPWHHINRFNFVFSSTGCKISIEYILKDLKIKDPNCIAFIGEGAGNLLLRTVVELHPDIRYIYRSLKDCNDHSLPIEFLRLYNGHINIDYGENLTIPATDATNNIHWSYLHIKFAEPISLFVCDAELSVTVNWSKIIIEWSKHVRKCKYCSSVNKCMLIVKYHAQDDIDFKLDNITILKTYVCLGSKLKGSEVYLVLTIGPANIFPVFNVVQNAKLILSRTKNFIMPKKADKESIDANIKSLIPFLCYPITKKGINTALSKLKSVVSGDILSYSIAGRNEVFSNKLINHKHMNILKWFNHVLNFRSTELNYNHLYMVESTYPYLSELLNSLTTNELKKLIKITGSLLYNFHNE

| SMILES | IC50 [1] | CC50 at 4 days [3] | EC50 [2, 6] | other results |
| --- | --- | --- | --- | --- |
| C[C@@]1(c2ccc3c(N)ncnn23)O[C@H](COP(=O)(O)OP(=O)(O)OP(=O)(O)O)[C@@H](O)[C@H]1O [Compound 19, ((2R, 3S, 4R, 5S)-5-(4-aminopyrrolo[1,2-f][1,2,4]triazin-7-yl)-3,4-dihydroxymethyltetrahydrofuran-2-yl)methyl Tetrahydrogen Triphosphate] | 1500 nM |  |  |  |
| N#C[C@@]1(c2ccc3c(N)ncnn23)O[C@H](COP(=O)(O)OP(=O)(O)OP(=O)(O)O)[C@@H](O)[C@H]1F [Compound 20, ((2R,3R,4R,5R)-5-(4-aminopyrrolo[1,2-f][1,2,4]triazin-7-yl)-5-cyano-4-fluoro-3-hydroxytetrahydrofuran-2-yl)methyl Tetrahydrogen Triphosphate] | 800 nM |  |  |  |
| C[C@@]1(c2ccc3c(N)ncnn23)O[C@H](COP(=O)(O)OP(=O)(O)OP(=O)(O)O)[C@@H](O)[C@H]1F [Compound 6, ((2R, 3R, 4R, 5S)-5-(4-aminopyrrolo[1,2-f][1,2,4]triazin-7-yl)-4-fluoro-3-hydroxy-5-methyltetrahydrofuran-2-yl)methyl Tetrahydrogen Triphosphate] | 3600 nM |  |  |  |
| C#C[C@@]1(c2ccc3c(N)ncnn23)O[C@H](COP(=O)(O)OP(=O)(O)OP(=O)(O)O)[C@@H](O)[C@H]1O [Compound 18, ((2R, 3S, 4R, 5S)-5-(4-aminopyrrolo[1,2-f][1,2,4]triazin-7-yl)-5-ethynyl-3,4-dihydroxytetrahydrofuran-2-yl)methyl tetrahydrogen triphosphate] | 1600 nM |  |  |  |
| CCOC(=O)[C@H](C)NP(=O)(OC[C@H]1O[C@@](C#N)(c2ccc3c(N)ncnn23)[C@H](O)[C@@H]1O)Oc1ccccc1 (stereo partly drawn) [Compound 10, (2S)-ethyl 2-((((2R,3S,4R,5R)-5-(4-aminopyrrolo[1,2-f][1,2,4]triazin-7-yl)cyano-3,4-dihydroxytetrahydrofuranyl)methoxy)(phenoxy)phosphorylamino)propanoate] |  | 47 µM |  | EC50 [2]: 180 nM |
| C#C[C@@]1(c2ccc3c(N)ncnn23)O[C@H](CO)[C@@H](O)[C@H]1O [Compound 13, (2S,3R,4S,5R)-2-(4-aminopyrrolo[1,2-f][1,2,4]triazin-7-yl)-2-ethynyl (hydroxymethyl)tetrahydrofuran-3,4-diol] |  | > 100 µM | 34000 nM |  |
| N#C[C@@]1(c2ccc3c(N)ncnn23)O[C@H](CO)[C@@H](O)[C@H]1O [Compound 1, (2R, 3R, 4S, 5R)-2-(4-aminopyrrolo[1,2-f][1,2,4]triazin-7-yl)-3,4-dihydroxy (hydroxymethyl)tetrahydrofuran-2-carbonitrile] |  | > 100 µM | 480 nM | IC50 [4]: 1.71 µM; CC50 at 7 days [5]: > 30 µM |
| CCOC(=O)[C@H](C)NP(=O)(N[C@@H](C)C(=O)OCC)OC[C@H]1O[C@@](C#N)(c2ccc3c(N)ncnn23)[C@H](O)[C@@H]1O [Compound 12, (2S,2'S)-diethyl 2,2′-((((2R,3S,4R,5R)-5-(4-aminopyrrolo[1,2-f][1,2,4]triazinyl)-5-cyano-3,4-dihydroxytetrahydrofuranyl)methoxy)phosphoryl)bis(azanediyl)dipropanoate] |  | > 100 µM | 6500 nM |  |
| C[C@@]1(c2ccc3c(N)ncnn23)O[C@H](CO)[C@@H](O)[C@H]1O [Compound 14] |  | 92 µM | 2700 nM | IC50 [4]: 5.23 µM; CC50 at 7 days [5]: > 30 µM |
| CC(C)(C)C(=O)SCCOP(=O)(OCCSC(=O)C(C)(C)C)OC[C@H]1O[C@@](C#N)(c2ccc3c(N)ncnn23)[C@H](O)[C@@H]1O [Compound 15, S,S′-2,2′-((((2R,3S,4R,5R)-5-(4-aminopyrrolo[1,2-f][1,2,4]triazin-7-yl)-5-cyano-3,4-dihydroxytetrahydrofuran-2-yl)methoxy)phosphoryl)bis(oxy)bis(ethane-2,1-diyl) bis(2,2-dimethylpropanethioate)] |  | > 100 µM | 150 nM |  |
| C#C[C@@]1(c2ccc3c(N)ncnn23)O[C@H](COP(=O)(OCCSC(=O)C(C)(C)C)OCCSC(=O)C(C)(C)C)[C@@H](O)[C@H]1O [Compound 16, S,S′-2,2′-((((2R, 3S, 4R, 5S)-5-(4-aminopyrrolo[1,2-f][1,2,4]triazin-7-yl)-5-ethynyl-3,4-dihydroxytetrahydrofuran-2-yl)methoxy)phosphoryl)bis(oxy)bis(ethane-2,1-diyl) bis(2,2-dimethylpropanethioate)] |  | > 100 µM |  | EC50 [2]: 3300 nM |
